The values that follow come from ChEMBL document CHEMBL6127034, “Design, synthesis and biological evaluation of a novel PAK1 degrader for the treatment of triple negative breast cancer” (Bioorg Med Chem, 2024).

The structures appear in SMILES notation.

Experiment [1] has as its target T1, von Hippel-Lindau disease tumor suppressor/Serine/threonine-protein kinase PAK 1 (Homo sapiens, UniProt Q13153+P40337). The experiment can be described thus: PROTAC activity at VHL/PAK1 in human MDA-MB-231 cells assessed as induction of protein degradation at 2.5 uM incubated for 48 hrs by Western blot analysis relative to control. It is filed as cell-based.
The test system of experiment [2] is MDA-MB-231. The experiment can be described thus: Antiproliferative activity against human MDA-MB-231 cells incubated for 48 hrs by MTT assay. Type of experiment: functional, cell-based. The settings on record: MDA-MB-231, 48 h.
Experiment [3] has as its target T1, von Hippel-Lindau disease tumor suppressor/Serine/threonine-protein kinase PAK 1. The experiment can be described thus: PROTAC activity at VHL/PAK1 in human MDA-MB-231 cells assessed as fold change in protein expression at 2.5 uM incubated for 48 hrs by Western blot analysis relative to control. Type of experiment: cell-based.
Experiment [4] has as its target T2, Protein cereblon/Serine/threonine-protein kinase PAK 1 (Homo sapiens) (UniProt Q13153+Q96SW2). Kind of experiment: PROTAC activity at CRBN/PAK1 in human MDA-MB-231 cells assessed as induction of protein degradation at 2.5 uM incubated for 48 hrs by Western blot analysis relative to control. Type of experiment: cell-based.
Experiment [5] addresses T2, Protein cereblon/Serine/threonine-protein kinase PAK 1 (Homo sapiens). Kind of experiment: PROTAC activity at CRBN/PAK1 in human MDA-MB-231 cells assessed as fold change in protein expression at 2.5 uM incubated for 48 hrs by Western blot analysis relative to control. Type of experiment: cell-based.

T2 sequence (Q13153 whole entry, looked up): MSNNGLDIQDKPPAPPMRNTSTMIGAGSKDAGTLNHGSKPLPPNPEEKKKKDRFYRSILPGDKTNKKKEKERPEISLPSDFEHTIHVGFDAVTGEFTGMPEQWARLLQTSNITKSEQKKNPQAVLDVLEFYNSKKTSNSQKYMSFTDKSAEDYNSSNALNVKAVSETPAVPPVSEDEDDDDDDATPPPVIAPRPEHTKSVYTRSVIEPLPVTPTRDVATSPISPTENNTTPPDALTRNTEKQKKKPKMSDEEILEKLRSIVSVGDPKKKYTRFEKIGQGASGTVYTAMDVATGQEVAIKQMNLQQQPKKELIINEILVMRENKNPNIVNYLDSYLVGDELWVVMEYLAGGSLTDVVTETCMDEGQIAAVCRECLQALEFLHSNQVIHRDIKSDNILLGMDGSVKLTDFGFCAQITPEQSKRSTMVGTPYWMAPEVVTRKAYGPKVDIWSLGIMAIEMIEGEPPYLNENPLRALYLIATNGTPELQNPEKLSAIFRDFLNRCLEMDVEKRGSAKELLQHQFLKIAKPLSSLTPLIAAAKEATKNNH
T2 sequence (Q96SW2 whole entry, looked up): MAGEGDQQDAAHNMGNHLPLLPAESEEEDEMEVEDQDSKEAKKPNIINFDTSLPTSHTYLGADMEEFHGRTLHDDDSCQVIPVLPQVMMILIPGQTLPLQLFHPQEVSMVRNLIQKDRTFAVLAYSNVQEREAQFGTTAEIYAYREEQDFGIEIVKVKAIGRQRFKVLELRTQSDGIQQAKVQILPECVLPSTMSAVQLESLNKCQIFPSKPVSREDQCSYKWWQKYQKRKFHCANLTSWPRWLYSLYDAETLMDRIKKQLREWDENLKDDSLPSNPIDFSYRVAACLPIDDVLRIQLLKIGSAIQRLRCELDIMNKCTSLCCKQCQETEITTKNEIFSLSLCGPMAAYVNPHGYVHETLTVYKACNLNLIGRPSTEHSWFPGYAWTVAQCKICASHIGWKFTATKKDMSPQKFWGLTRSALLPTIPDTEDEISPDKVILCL
T1 sequence (Q13153 2-545 limits assumed): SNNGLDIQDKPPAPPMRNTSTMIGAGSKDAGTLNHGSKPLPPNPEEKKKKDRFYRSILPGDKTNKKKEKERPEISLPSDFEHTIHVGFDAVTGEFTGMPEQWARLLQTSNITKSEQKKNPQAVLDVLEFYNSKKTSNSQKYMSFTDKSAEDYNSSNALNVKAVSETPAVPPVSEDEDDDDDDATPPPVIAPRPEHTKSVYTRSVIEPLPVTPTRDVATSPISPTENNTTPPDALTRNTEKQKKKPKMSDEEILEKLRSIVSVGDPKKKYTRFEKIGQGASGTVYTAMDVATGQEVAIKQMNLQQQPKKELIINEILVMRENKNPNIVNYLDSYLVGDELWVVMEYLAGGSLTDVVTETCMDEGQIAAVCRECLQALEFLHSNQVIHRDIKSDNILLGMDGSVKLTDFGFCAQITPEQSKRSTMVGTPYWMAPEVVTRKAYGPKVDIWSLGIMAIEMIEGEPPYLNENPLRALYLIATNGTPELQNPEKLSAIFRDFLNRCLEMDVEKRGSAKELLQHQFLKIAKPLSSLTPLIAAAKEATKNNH
T1 sequence (P40337 whole entry partner): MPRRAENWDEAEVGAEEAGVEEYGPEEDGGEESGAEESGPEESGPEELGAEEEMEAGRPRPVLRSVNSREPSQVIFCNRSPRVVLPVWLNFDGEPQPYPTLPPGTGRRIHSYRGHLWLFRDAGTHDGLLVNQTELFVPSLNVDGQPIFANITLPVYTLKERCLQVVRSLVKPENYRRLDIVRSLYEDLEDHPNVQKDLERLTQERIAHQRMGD

In the case of `Cc1ncsc1-c1ccc([C@H](C)NC(=O)[C@@H]2C[C@@H](O)CN2C(=O)[C@@H](NC(=O)CCCCc2cn(CCCCCCn3c(=O)c(-c4ccc(Cl)cc4Cl)cc4cnc(NC5CC5)nc43)nn2)C(C)(C)C)cc1`, the Activity in experiment [1] is 24.6%. In experiment [2], this compound came in with an IC50 above 50 µM. Further, in experiment [3], the fold change (FC) amounted to 0.754.

For the compound `Cc1ncsc1-c1ccc([C@H](C)NC(=O)[C@@H]2C[C@@H](O)CN2C(=O)[C@@H](NC(=O)CCCCc2cn(CCOCCn3c(=O)c(-c4ccc(Cl)cc4Cl)cc4cnc(NC5CC5)nc43)nn2)C(C)(C)C)cc1`, the Activity in experiment [1] was 30.1%. Also, inhibition in experiment [2] was half-maximal at 35.8 µM (IC50). The fold change (FC) in experiment [3] was found to be 0.699.

For `O=C1CCC(N2C(=O)c3cccc(NCc4cn(CCCCCn5c(=O)c(-c6ccc(Cl)cc6Cl)cc6cnc(NC7CC7)nc65)nn4)c3C2=O)C(=O)N1` (configuration not stated), the Activity in experiment [4] turned out to be 19.2%. The compound further returned an IC50 in experiment [2] above 50 µM. For the same compound, the fold change (FC) in experiment [5] was 0.809.

Turning to `O=C1CCC(N2C(=O)c3cccc(NCc4cn(CCCCCCn5c(=O)c(-c6ccc(Cl)cc6Cl)cc6cnc(NC7CC7)nc65)nn4)c3C2=O)C(=O)N1` (configuration not stated), in experiment [4], the Activity amounted to 34.7%. For the same compound, in experiment [2], half-maximal inhibition (IC50) required 32.1 µM. Further, the fold change (FC) in experiment [5] was determined as 0.761.

With `O=C1CCC(N2C(=O)c3cccc(NCc4cn(CCCCn5c(=O)c(-c6ccc(Cl)cc6Cl)cc6cnc(NC7CC7)nc65)nn4)c3C2=O)C(=O)N1` (configuration not stated), the Activity in experiment [4] stood at 23.9%. In addition, it took 34.6 µM to reach half-maximal inhibition in experiment [2] (IC50). In addition, the fold change (FC) in experiment [5] is 0.761.

Turning to `Cc1ncsc1-c1ccc([C@H](C)NC(=O)[C@@H]2C[C@@H](O)CN2C(=O)[C@@H](NC(=O)CCCc2cn(CCCCCCn3c(=O)c(-c4ccc(Cl)cc4Cl)cc4cnc(NC5CC5)nc43)nn2)C(C)(C)C)cc1`, the Activity in experiment [1] was determined as 29.1%. The compound also registered an IC50 in experiment [2] above 50 µM. For the same compound, in experiment [3], the fold change (FC) was 0.709.

Turning to `Cc1ncsc1-c1ccc([C@H](C)NC(=O)[C@@H]2C[C@@H](O)CN2C(=O)[C@@H](NC(=O)CCc2cn(CCCCn3c(=O)c(-c4ccc(Cl)cc4Cl)cc4cnc(NC5CC5)nc43)nn2)C(C)(C)C)cc1`, the Activity in experiment [1] was determined as 10.4%. In addition, the concentration for half-maximal inhibition (IC50) in experiment [2] is above 50 µM. For the same compound, in experiment [3], the fold change (FC) came out at 0.896.

For the compound `CNc1ncc2cc(-c3ccc(Cl)cc3Cl)c(=O)n(CCOCCn3cc(CNc4cccc5c4C(=O)N(C4CCC(=O)NC4=O)C5=O)nn3)c2n1` (configuration not stated), the Activity in experiment [4] came to 8.2%. The half-inhibitory concentration (IC50) in experiment [2] was above 50 µM. In experiment [5], the fold change (FC) came to 0.918.

With `Cc1ncsc1-c1ccc([C@H](C)NC(=O)[C@@H]2C[C@@H](O)CN2C(=O)[C@@H](NC(=O)CCc2cn(CCCCCn3c(=O)c(-c4ccc(Cl)cc4Cl)cc4cnc(NC5CC5)nc43)nn2)C(C)(C)C)cc1`, the Activity in experiment [1] was 17.4%. In experiment [2], the IC50 is above 50 µM. Moreover, the fold change (FC) in experiment [3] amounted to 0.826.

As for `Cc1ncsc1-c1ccc([C@H](C)NC(=O)[C@@H]2C[C@@H](O)CN2C(=O)[C@@H](NC(=O)CCCCc2cn(CCOCCOCCOCCn3c(=O)c(-c4ccc(Cl)cc4Cl)cc4cnc(NC5CC5)nc43)nn2)C(C)(C)C)cc1`, the Activity in experiment [1] is 12%. Further, the IC50 in experiment [2] is above 50 µM. Also, the fold change (FC) in experiment [3] stood at 0.88.

`Cc1ncsc1-c1ccc([C@H](C)NC(=O)[C@@H]2C[C@@H](O)CN2C(=O)[C@@H](NC(=O)CCc2cn(CCOCCOCCn3c(=O)c(-c4ccc(Cl)cc4Cl)cc4cnc(NC5CC5)nc43)nn2)C(C)(C)C)cc1`: the Activity in experiment [1] stood at 3.8%. Also, the concentration for half-maximal inhibition (IC50) in experiment [2] is above 50 µM. The fold change (FC) in experiment [3] was 0.962.

Consider `Cc1ncsc1-c1ccc([C@H](C)NC(=O)[C@@H]2C[C@@H](O)CN2C(=O)[C@@H](NC(=O)CCCc2cn(CCCCn3c(=O)c(-c4ccc(Cl)cc4Cl)cc4cnc(NC5CC5)nc43)nn2)C(C)(C)C)cc1`, for which the Activity in experiment [1] is 32.1%. Also, in experiment [2], the concentration for half-maximal inhibition (IC50) was found to be 33.2 µM. Also, the fold change (FC) in experiment [3] is 0.679.

Consider `CNc1ncc2cc(-c3ccc(Cl)cc3Cl)c(=O)n(CCOCCOCCn3cc(CNc4cccc5c4C(=O)N(C4CCC(=O)NC4=O)C5=O)nn3)c2n1` (configuration not stated), for which the Activity in experiment [4] was 4.1%. Also, in experiment [2], the half-inhibitory concentration (IC50) was above 50 µM. In addition, the fold change (FC) in experiment [5] was determined as 0.959.

For the compound `Cc1ncsc1-c1ccc([C@H](C)NC(=O)[C@@H]2C[C@@H](O)CN2C(=O)[C@@H](NC(=O)CCCCc2cn(CCOCCOCCn3c(=O)c(-c4ccc(Cl)cc4Cl)cc4cnc(NC5CC5)nc43)nn2)C(C)(C)C)cc1`, the Activity in experiment [1] was -4.8%. In experiment [2], this compound showed an IC50 above 50 µM. The fold change (FC) in experiment [3] was 1.05.

As to `Cc1ncsc1-c1ccc([C@H](C)NC(=O)[C@@H]2C[C@@H](O)CN2C(=O)[C@@H](NC(=O)CCc2cn(CCOCCOCCOCCn3c(=O)c(-c4ccc(Cl)cc4Cl)cc4cnc(NC5CC5)nc43)nn2)C(C)(C)C)cc1`, the Activity in experiment [1] turned out to be 7.1%. Moreover, the IC50 in experiment [2] is above 50 µM. Also, in experiment [3], the fold change (FC) worked out at 0.929.

On to `Cc1ncsc1-c1ccc([C@H](C)NC(=O)[C@@H]2C[C@@H](O)CN2C(=O)[C@@H](NC(=O)CCCCc2cn(CCCCCCCn3c(=O)c(-c4ccc(Cl)cc4Cl)cc4cnc(NC5CC5)nc43)nn2)C(C)(C)C)cc1`, for which the Activity in experiment [1] stood at 18.2%. The 50% inhibitory concentration (IC50) in experiment [2] is above 50 µM. In addition, the fold change (FC) in experiment [3] stood at 0.812.

As to `CNc1ncc2cc(-c3ccc(Cl)cc3Cl)c(=O)n(CCCCCn3cc(CNc4cccc5c4C(=O)N(C4CCC(=O)NC4=O)C5=O)nn3)c2n1` (configuration not stated), the Activity in experiment [4] was -5.4%. This compound yielded a half-inhibitory concentration (IC50) in experiment [2] above 50 µM. Also, the fold change (FC) in experiment [5] amounted to 0.97.

Take `Cc1ncsc1-c1ccc([C@H](C)NC(=O)[C@@H]2C[C@@H](O)CN2C(=O)[C@@H](NC(=O)CCCc2cn(CCOCCn3c(=O)c(-c4ccc(Cl)cc4Cl)cc4cnc(NC5CC5)nc43)nn2)C(C)(C)C)cc1`: the Activity in experiment [1] turned out to be 31.7%. Moreover, in experiment [2], the IC50 was 27.1 µM. Also, the fold change (FC) in experiment [3] worked out at 0.683.

On to `Cc1ncsc1-c1ccc([C@H](C)NC(=O)[C@@H]2C[C@@H](O)CN2C(=O)[C@@H](NC(=O)CCCc2cn(CCOCCOCCOCCn3c(=O)c(-c4ccc(Cl)cc4Cl)cc4cnc(NC5CC5)nc43)nn2)C(C)(C)C)cc1`, for which the Activity in experiment [1] was determined as 5.1%. In addition, the IC50 in experiment [2] is above 50 µM. Besides, the fold change (FC) in experiment [3] turned out to be 0.949.

As to `CNc1ncc2cc(-c3ccc(Cl)cc3Cl)c(=O)n(CCOCCOCCOCCn3cc(CNc4cccc5c4C(=O)N(C4CCC(=O)NC4=O)C5=O)nn3)c2n1` (configuration not stated), in experiment [4], the Activity came to 1.2%. Besides, the IC50 in experiment [2] is above 50 µM. The fold change (FC) in experiment [5] came to 0.988.

`Cc1ncsc1-c1ccc([C@H](C)NC(=O)[C@@H]2C[C@@H](O)CN2C(=O)[C@@H](NC(=O)CCCCc2cn(CCCCn3c(=O)c(-c4ccc(Cl)cc4Cl)cc4cnc(NC5CC5)nc43)nn2)C(C)(C)C)cc1`: the Activity in experiment [1] came out at 14.4%. This compound displayed an IC50 in experiment [2] above 50 µM. The fold change (FC) in experiment [3] was 0.856.

Turning to `O=C1CCC(N2C(=O)c3cccc(NCc4cn(CCOCCOCCOCCn5c(=O)c(-c6ccc(Cl)cc6Cl)cc6cnc(NC7CC7)nc65)nn4)c3C2=O)C(=O)N1` (configuration not stated), the Activity in experiment [4] was -6.9%. The IC50 in experiment [2] is above 50 µM. For the same compound, the fold change (FC) in experiment [5] was 1.07.

On to `O=C1CCC(N2C(=O)c3cccc(NCc4cn(CCOCCn5c(=O)c(-c6ccc(Cl)cc6Cl)cc6cnc(NC7CC7)nc65)nn4)c3C2=O)C(=O)N1` (configuration not stated), for which, in experiment [4], the Activity turned out to be 1%. This compound also gave a 50% inhibitory concentration (IC50) in experiment [2] above 50 µM. Besides, the fold change (FC) in experiment [5] turned out to be 0.99.

For `Cc1ncsc1-c1ccc([C@H](C)NC(=O)[C@@H]2C[C@@H](O)CN2C(=O)[C@@H](NC(=O)CCCc2cn(CCOCCOCCn3c(=O)c(-c4ccc(Cl)cc4Cl)cc4cnc(NC5CC5)nc43)nn2)C(C)(C)C)cc1`, the Activity in experiment [1] worked out at 2.7%. In addition, in experiment [2], the 50% inhibitory concentration (IC50) is above 50 µM. Also, the fold change (FC) in experiment [3] was 0.973.
